# Measurements: patent US8362064B2, “Sulfonamide compounds for the treatment of respiratory disorders” (Pulmagen Theraputics (Inflammation) Limited, priority 2008, dated 2013)
# Like-named read-outs stand apart in the source and are kept apart here. Marks after values point to notes of the source that are not given here.
# Assays:
# human PPARγ = target: T1, human PPARγ (Homo sapiens, UniProt P37231); assay: Human PPAR gamma agonist activity, GAL4-luciferase transactivation in transfected HEK-293 cells; assay type: cell-based; details: fold increase in gene transactivation (luciferase), 18 hours incubation, classes at 10 μM or 1 μM
# T1 construct: expressed in transfected cells; host or cells: HEK-293 (Human Embryonic Kidney) cells
# T1 sequence (P37231 1-505): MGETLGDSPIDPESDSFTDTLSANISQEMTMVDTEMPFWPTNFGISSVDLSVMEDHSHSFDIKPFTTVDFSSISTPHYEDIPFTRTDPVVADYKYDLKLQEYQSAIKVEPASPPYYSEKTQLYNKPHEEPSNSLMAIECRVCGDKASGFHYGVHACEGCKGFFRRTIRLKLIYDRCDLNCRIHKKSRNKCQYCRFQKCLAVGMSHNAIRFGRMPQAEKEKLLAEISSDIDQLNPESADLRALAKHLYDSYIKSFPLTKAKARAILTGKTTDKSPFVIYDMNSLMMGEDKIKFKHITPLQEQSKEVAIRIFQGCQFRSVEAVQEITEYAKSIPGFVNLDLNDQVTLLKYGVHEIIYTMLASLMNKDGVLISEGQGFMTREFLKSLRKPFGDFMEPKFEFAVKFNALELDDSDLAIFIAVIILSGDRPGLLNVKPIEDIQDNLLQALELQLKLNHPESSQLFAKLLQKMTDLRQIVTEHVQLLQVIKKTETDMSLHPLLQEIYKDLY
# Experimental: HEK-293 (Human Embryonic Kidney) cells were seeded at a density of 2.8×10^5 cells/well in a 6 well plate in DMEM +10% delipidated FBS medium and incubated at 37° C., 5% CO2. At 70-80% confluency cells were transfected with human pCDNA3.1E˜PPARγ+pGL2˜GAL4x5˜Luc+pADV plasmids for 3 hours (ratio 2:0.25:1.25 μg/well). The transfection medium was then replaced with fresh medium and cells were incubated for 48 hours.
# Varying final concentrations of compounds (vehicle=0.1% DMSO) of the invention were prepared in medium (50 μl/well) and added to the wells in a 96 well plate. Transfected cells were harvested and pelleted by centrifugation. The cell pellet was resuspended in medium and cells counted. 10,000 cells/well were added to the 96 well plate containing compounds of the invention and incubated for 18 hours. Luminescence produced following agonism of the PPAR gamma receptor was determined using Packard luciferase substrate reagent (100 μl/well). Light emission was quantified by counting SPC mode using a Top Count. Fold activation was calculated using the following formula: […]
# All compounds show activity as PPAR gamma agonists at 30 μM. Key for relative activity: • *<8 fold increase in gene transactivation with 10 μM • **>8 fold increase in gene transactivation with 10 μM • ***>8 fold increase in gene transactivation with 1 μM.
# [1] = tested on: TS induced BAL neutrophil influx; assay: Pre-clinical mouse model of COPD inflammation (tobacco smoke induced pulmonary inflammation), BAL neutrophil counts; assay type: in vivo; details: mice; for Inhibition of TS induced BAL neutrophil influx: BAL 24 h after final TS; for TS induced influx of neutrophils in the BAL (in words): administered by a surrogate route for inhalation (intra-nasal)
# Experimental: Protocols for the exposure of mice to TS, obtaining bronchoalveolar lavage (BAL), preparation of cytospin slides for differential cell counts are as outlined below.
# In this exposure protocol, mice were exposed in groups of 5 in individual clear polycarbonate chambers (27 cm×16 cm×12 cm). The TS from the cigarettes was allowed to enter the exposure chambers at a flow rate of 100 mL/min. In order to minimize any potential problems caused by repeated exposure to a high level of TS (6 cigarettes), the exposure of the mice to TS was increased gradually over the exposure period to a maximum of 6 cigarettes. The exposure schedule used for 4 days was as follows:
# A further group of mice was exposed to air on a daily basis for an equivalent length of time as controls (no TS exposure).
# Bronchoalveolar lavage was performed as follows: the trachea was cannulated using a Portex nylon intravenous cannula (pink luer fitting) shortened to approximately 8 mm. Phosphate buffered saline (PBS) was used as the lavage fluid. A volume of 0.4 mL was gently instilled and withdrawn 3 times using a 1 mL syringe and then placed in an Eppendorf tube and kept on ice prior to subsequent determinations.
# Lavage fluid was separated from cells by centrifugation and the supernatant decanted and frozen for subsequent analysis. The cell pellet was re-suspended in a known volume of PBS and total cell numbers calculated by counting a stained (Turks stain) aliquot under a microscope using a haemocytometer.
# The residual cell pellet was diluted to approximately 10^5 cells per mL. A volume of 500 μL was placed in the funnel of a cytospin slide and centrifuged for 8 min at 800 rpm. The slide was air dried and stained using ‘Kwik-Diff’ solutions (Shandon) as per the proprietary instructions. When dried and cover-slipped, differential cells were counted using light microscopy. Up to 400 cells were counted by unbiased operator using light microscopy. Cells were differentiated using standard morphometric techniques.
# Mice were dosed intra-nasally (surrogate for oral inhalation) with vehicle (0.2% tween 80 in saline), Example 1 (0.1 mg/kg), Example 10 (0.1 mg/kg), Example 10 (0.03 mg/kg), or Example 10 (0.01 mg/kg), at 3 hours prior to tobacco smoke exposure each day. The control group of mice received vehicle 3 hrs prior to being exposed to air daily for a maximum of 50 minutes per day. BAL was performed 24 h following the final TS exposure.
# In a separate experiment, mice were dosed intra-nasally (surrogate for oral inhalation) with either vehicle (0.2% tween 80 in saline), Example 7 (0.1 mg/kg), Compound 7 (0.03 mg/kg), Example 15 (0.1 mg/kg), or Example 15 (0.03 mg/kg), 1 hour prior to tobacco smoke exposure each day. The control group of mice received vehicle 1 hr prior to being exposed to air daily for a maximum of 50 minutes per day. BAL was performed 24 h following the final TS exposure.
# All results are presented as individual data points for each animal and the mean value was calculated for each group. Since tests for normality were positive the data was subjected to a one way analysis of variance test (ANOVA), followed by a Bonferroni correction for multiple comparisons in order to test for significance between treatment groups. A “p” value of <0.05 was considered to be statistically significant. Percentage inhibitions were automatically calculated within the Excel spreadsheets for the cell data using the formula below:
# [formula] Inhibition data for other parameters were calculated manually using the above formula.
# [2] = In vivo pharmacokinetic study, plasma AUC after oral and i.v. dosing; parameters: species or system male Wistar rats; details: for plasma AUC following i.v. dosing (in words) / oral bioavailability (in words) / AUC: rat; for oral bioavailability (in words): oral vs i.v. plasma AUC; for AUC: plasma
# Experimental: The suitability of the compounds exemplified in Examples 7, 10 and 15 above for inhalation for the treatment of lung diseases was examined by standard in vivo pharmacokinetic studies using male Wistar rats as known in the art. […] A single 1 mg/kg dose of Example 7, Example 10 and Example 15 was administered in 10% DMSO, 10% Cremophor ELP, 10% PEG 400, 10% EtOH and 60% Milli Q Water by the intravenous (IV) route and plasma samples taken 15 minutes, 30 minutes, 1 hour, 2 hours, 3 hours, 5 hours, 8 hours, 10 hours and 24 hours. Concentrations of Example 7, Example 10 and Example 15 in the various plasma samples were determined using standard analytical procedures.
# Standard pharmacokinetic parameters following IV or oral dosing were calculated from the plasma concentration data, including Area under the curve (AUC), maximum plasma concentration (Cmax), time of maximum plasma concentration (Tmax), Elimination time (Kel) and plasma half-life (T½).
# Compounds suitable for inhalation for the treatment of lung diseases have low plasma AUC following i.v. dosing indicating reduced likelihood of systemic side effects. Compounds suitable for inhalation for the treatment of lung diseases also have low oral bioavailability indicated by a much lower plasma AUC following oral dosing as that achieved by i.v. dosing. Low oral bioavailability leads to only a small fraction of the swallowed drug following inhalation being absorbed into the plasma, further reducing the likelihood of systemic side effects.
# [3] = rat, cited from earlier work
# [4] = 0.03 mg/kg intra-nasally 1 hour prior to TS exposure each day for 4 days
# [5] = 0.1 mg/kg intra-nasally 1 hour prior to TS exposure each day for 4 days
# [6] = iv, male Wistar rats, single 1 mg/kg i.v. dose, read-out: Plasma AUC following 1 mg/kg i.v. dose
# [7] = male Wistar rats, derived from 5 mg/kg oral dose PK data, read-out: Plasma AUC following 1 mg/kg oral dose
structure (smiles),measurement,setting,value
O=S(=O)(Nc1cc(Cl)c(Oc2cnn(-c3ccc(F)cc3F)c2)c(Cl)c1)c1ccc(Cl)cc1Cl [Example 3],PPARγ agonist activity,human PPARγ,*** (>8 fold increase in gene transactivation with 1 μM)
O=S(=O)(Nc1cc(Cl)c(Oc2cnn(-c3ccc(F)cc3)c2)c(Cl)c1)c1ccc(Cl)cc1Cl [Example 4],PPARγ agonist activity,human PPARγ,*** (>8 fold increase in gene transactivation with 1 μM)
O=S(=O)(Nc1ccc(Oc2cnn(-c3ccc(F)cc3)c2)c(Cl)c1)c1ccc(Cl)cc1Cl [Example 5],PPARγ agonist activity,human PPARγ,*** (>8 fold increase in gene transactivation with 1 μM)
O=S(=O)(Nc1ccc(Oc2cnn(-c3ccc(Cl)cc3)c2)c(Cl)c1)c1ccc(Cl)cc1Cl [Example 6],PPARγ agonist activity,human PPARγ,*** (>8 fold increase in gene transactivation with 1 μM)
O=S(=O)(Nc1ccc(Oc2cnn(-c3ccc(F)c(Cl)c3)c2)c(Cl)c1)c1ccc(Cl)cc1Cl [Example 7],PPARγ agonist activity,human PPARγ,** (>8 fold increase in gene transactivation with 10 μM)
same,Inhibition of TS induced BAL neutrophil influx,[1]; [4],37%
same,Inhibition of TS induced BAL neutrophil influx,[1]; [5],64%
same,TS induced influx of neutrophils in the BAL (in words),[1],significantly inhibit
same,plasma AUC following i.v. dosing (in words),[2],low
same,oral bioavailability (in words),[2],low
same,AUC,[2]; [6],1.08 ± 0.24 µg·h/mL
same,AUC,[2]; [7],0.04 ± 0.008 µg·h/mL
Cc1ccc(S(=O)(=O)Nc2ccc(Oc3cnn(-c4ccc(F)cc4)c3)c(Cl)c2)cc1 [Example 8],PPARγ agonist activity,human PPARγ,** (>8 fold increase in gene transactivation with 10 μM)
Cc1cc(NS(=O)(=O)c2ccc(Cl)cc2Cl)ccc1Oc1cnn(-c2ccc(F)cc2)c1 [Example 9],PPARγ agonist activity,human PPARγ,*** (>8 fold increase in gene transactivation with 1 μM)
Cc1ccc(-n2cc(Oc3ccc(NS(=O)(=O)c4ccc(Cl)cc4Cl)cc3)cn2)c(C)c1 [Example 10],PPARγ agonist activity,human PPARγ,*** (>8 fold increase in gene transactivation with 1 μM)
same,Inhibition of TS induced BAL neutrophil influx,[1]; 0.01 mg/kg intra-nasally 3 hours prior to TS exposure each day for 4 days,42%
same,Inhibition of TS induced BAL neutrophil influx,[1]; 0.03 mg/kg intra-nasally 3 hours prior to TS exposure each day for 4 days,50%
same,Inhibition of TS induced BAL neutrophil influx,[1]; 0.1 mg/kg intra-nasally 3 hours prior to TS exposure each day for 4 days,72%
same,TS induced influx of neutrophils in the BAL (in words),[1],significantly inhibit
same,Plasma AUC following 1 mg/kg oral dose,"[2]; male Wistar rats, oral gavage (5 mg/kg given), limit of detection was 5 ng/ml",None
same,plasma AUC following i.v. dosing (in words),[2],low
same,oral bioavailability (in words),[2],low
same,AUC,[2]; [6],0.21 ± 0.06 µg·h/mL
Cc1ccc(-n2cc(Oc3ccc(NS(=O)(=O)c4ccc(C)cc4)cc3)cn2)cc1 [Example 11],PPARγ agonist activity,human PPARγ,* (<8 fold increase in gene transactivation with 10 μM)
O=S(=O)(Nc1ccc(Oc2cnn(-c3ccc(F)cc3)c2)c(Cl)c1)c1ccccc1 [Example 12],PPARγ agonist activity,human PPARγ,* (<8 fold increase in gene transactivation with 10 μM)
O=S(=O)(Nc1ccc(Oc2cnn(-c3ccccc3)c2)c(Cl)c1)c1ccc(Cl)cc1Cl [Example 13],PPARγ agonist activity,human PPARγ,*** (>8 fold increase in gene transactivation with 1 μM)
Cc1ccc(S(=O)(=O)Nc2ccc(Oc3cnn(-c4ccc(C)cc4C)c3)cc2)cc1 [Example 14],PPARγ agonist activity,human PPARγ,* (<8 fold increase in gene transactivation with 10 μM)
Cc1ccc(S(=O)(=O)Nc2ccc(Oc3cnn(-c4ccc(C)cc4C)c3)c(Cl)c2)cc1 [Example 15],PPARγ agonist activity,human PPARγ,** (>8 fold increase in gene transactivation with 10 μM)
same,Inhibition of TS induced BAL neutrophil influx,[1]; [4],66%
same,Inhibition of TS induced BAL neutrophil influx,[1]; [5],69%
same,TS induced influx of neutrophils in the BAL (in words),[1],significantly inhibit
same,plasma AUC following i.v. dosing (in words),[2],low
same,oral bioavailability (in words),[2],low
same,AUC,[2]; [6],0.17 ± 0.06 µg·h/mL
same,AUC,[2]; [7],0.001 ± 0.002 µg·h/mL
CN(CCOc1ccc(CC2SC(=O)NC2=O)cc1)c1ccccn1 (stereo not drawn) [Rosiglitazone],plasma AUC following an i.v. dose (in words),[3]; i.v.,high
same,oral bioavailability (in words),[3]; oral vs i.v. plasma AUC,high
same,Plasma AUC following 1 mg/kg i.v. dose,"[3]; FDA Pharmacology review data, derived from 0.4 mg/kg i.v. dose PK data",13.75*** μg*hr/ml
same,Plasma AUC following 1 mg/kg oral dose,"[3]; FDA Pharmacology review data, derived from 0.4 mg/kg oral dose PK data",14.28*** μg*hr/ml
